Experimental findings from ChEMBL document CHEMBL4052791, “GNE-886: A Potent and Selective Inhibitor of the Cat Eye Syndrome Chromosome Region Candidate 2 Bromodomain (CECR2)” (ACS Med Chem Lett, 2017) are described below.

Data set [1] deals with T1, Bromodomain-containing protein 4 (Homo sapiens, UniProt O60885). Put plainly: Inhibition of recombinant human N-terminal His6-FLAG-tagged BRD4 bromodomain 2 (unknown origin) expressed in Rosetta2 (DE3) pLysS cells after 60 mins by TR-FRET assay. It counts as cell-based. In general terms: TR-FRET usually uses a lanthanide donor and a delayed reading to cut background.
The target in data set [2] is T2, Chromatin remodeling regulator CECR2 (Homo sapiens, UniProt Q9BXF3). Put plainly: Inhibition of recombinant human N-terminal His6-FLAG-tagged CECR2 expressed in Rosetta2 (DE3) pLysS cells after 60 mins by TR-FRET assay. It counts as cell-based.
Data set [3] concerns the target T1, Bromodomain-containing protein 4. The experiment in a line: Inhibition of recombinant human N-terminal His6-FLAG-tagged BRD4 bromodomain 1 expressed in Rosetta2 (DE3) pLysS cells after 60 mins by TR-FRET assay. The class given is cell-based.
The target in data set [4] is T3, Transcription initiation factor TFIID subunit 1 (Homo sapiens, UniProt P21675). The experiment in a line: Inhibition of recombinant human N-terminal His6-FLAG-tagged TAF1 bromodomain 2 (unknown origin) expressed in Rosetta2 (DE3) pLysS cells after 60 mins by TR-FRET assay. It counts as cell-based.
Data set [5] deals with T4, Bromodomain-containing protein 9 (Homo sapiens, UniProt Q9H8M2).
T4 sequence (Q9H8M2 whole entry): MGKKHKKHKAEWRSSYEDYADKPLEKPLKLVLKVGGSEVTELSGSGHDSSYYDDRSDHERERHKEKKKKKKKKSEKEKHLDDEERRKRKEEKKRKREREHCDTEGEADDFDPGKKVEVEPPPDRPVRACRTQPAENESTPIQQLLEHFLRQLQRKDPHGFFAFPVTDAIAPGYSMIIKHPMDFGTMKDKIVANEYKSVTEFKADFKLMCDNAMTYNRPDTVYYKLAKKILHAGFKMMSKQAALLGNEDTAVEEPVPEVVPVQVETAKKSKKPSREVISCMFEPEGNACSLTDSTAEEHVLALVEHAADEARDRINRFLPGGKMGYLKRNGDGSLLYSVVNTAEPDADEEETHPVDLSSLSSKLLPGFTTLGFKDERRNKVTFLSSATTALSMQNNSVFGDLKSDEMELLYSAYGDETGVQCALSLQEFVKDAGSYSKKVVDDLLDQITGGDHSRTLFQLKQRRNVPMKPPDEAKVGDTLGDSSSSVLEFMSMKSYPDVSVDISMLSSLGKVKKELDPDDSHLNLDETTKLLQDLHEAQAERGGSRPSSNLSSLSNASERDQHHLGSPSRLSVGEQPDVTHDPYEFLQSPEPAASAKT
The experiment in a line: Inhibition of recombinant human N-terminal His6-FLAG-tagged BRD9 (unknown origin) expressed in Rosetta2 (DE3) pLysS cells after 60 mins by TR-FRET assay. It counts as cell-based.

The target of data set [6] is T3, Transcription initiation factor TFIID subunit 1. The experiment in a line: Binding affinity to human DNA-tagged TAF1 bromodomain 2 (1521 to 1656 residues) expressed in bacterial expression system by BROMOscan assay.
The target in data set [7] is Transcription initiation factor TFIID subunit 1-like (Homo sapiens, UniProt Q8IZX4). Put plainly: Binding affinity to human DNA-tagged TAF1L bromodomain 2 (1523 to 1654 residues) expressed in bacterial expression system by BROMOscan assay.
Data set [8] in a line: Kinetic solubility of the compound. To be noted: read-out: Kinetic_solubility. The class given is physicochemical.
Data set [9] concerns the target T4, Bromodomain-containing protein 9. Put plainly: Binding affinity to human DNA-tagged BRD9 isoform 1 (130 to 259 residues) expressed in bacterial expression system by BROMOscan assay.
The target of data set [10] is T2, Chromatin remodeling regulator CECR2. Put plainly: Binding affinity to ZsGreen fused-CECR2 bromodomain (M404 to H515 residues) (unknown origin) expressed in human U2OS-C433 cells co expressing (MDPKKKRKVDPKKRKVDPKKKRKV) assessed as induction of protein bromodomain localization from chromatin by measuring formation of large nuclear puncta by fluorescence based assay. It counts as cell-based.

The target in data set [11] is T5, Bromodomain-containing protein 7 (Homo sapiens, UniProt Q9NPI1).
T5 sequence (Q9NPI1 whole entry): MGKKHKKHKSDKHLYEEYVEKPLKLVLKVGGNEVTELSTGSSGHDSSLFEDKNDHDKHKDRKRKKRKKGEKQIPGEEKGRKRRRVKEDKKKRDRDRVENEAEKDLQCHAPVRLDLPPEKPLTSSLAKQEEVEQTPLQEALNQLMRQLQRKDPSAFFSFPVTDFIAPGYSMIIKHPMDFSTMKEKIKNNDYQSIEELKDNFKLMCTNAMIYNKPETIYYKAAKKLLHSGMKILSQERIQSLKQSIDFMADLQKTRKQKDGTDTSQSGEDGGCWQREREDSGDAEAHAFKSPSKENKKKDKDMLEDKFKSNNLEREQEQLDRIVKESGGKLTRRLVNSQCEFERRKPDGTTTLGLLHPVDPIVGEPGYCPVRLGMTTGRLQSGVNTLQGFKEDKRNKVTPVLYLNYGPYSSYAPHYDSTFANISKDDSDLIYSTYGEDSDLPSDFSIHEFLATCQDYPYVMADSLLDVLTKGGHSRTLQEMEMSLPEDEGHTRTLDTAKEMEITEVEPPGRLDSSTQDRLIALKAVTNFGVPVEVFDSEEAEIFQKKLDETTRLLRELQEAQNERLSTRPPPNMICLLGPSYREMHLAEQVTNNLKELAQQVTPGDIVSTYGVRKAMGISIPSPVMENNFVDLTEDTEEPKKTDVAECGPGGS
The experiment in a line: Binding affinity to human DNA-tagged BRD7 (125 to 254 residues) expressed in mammalian expression system by BROMOscan assay.

In brackets after ≈: the same amount, converted by molar mass.

T2 sequence (Q9BXF3 whole entry): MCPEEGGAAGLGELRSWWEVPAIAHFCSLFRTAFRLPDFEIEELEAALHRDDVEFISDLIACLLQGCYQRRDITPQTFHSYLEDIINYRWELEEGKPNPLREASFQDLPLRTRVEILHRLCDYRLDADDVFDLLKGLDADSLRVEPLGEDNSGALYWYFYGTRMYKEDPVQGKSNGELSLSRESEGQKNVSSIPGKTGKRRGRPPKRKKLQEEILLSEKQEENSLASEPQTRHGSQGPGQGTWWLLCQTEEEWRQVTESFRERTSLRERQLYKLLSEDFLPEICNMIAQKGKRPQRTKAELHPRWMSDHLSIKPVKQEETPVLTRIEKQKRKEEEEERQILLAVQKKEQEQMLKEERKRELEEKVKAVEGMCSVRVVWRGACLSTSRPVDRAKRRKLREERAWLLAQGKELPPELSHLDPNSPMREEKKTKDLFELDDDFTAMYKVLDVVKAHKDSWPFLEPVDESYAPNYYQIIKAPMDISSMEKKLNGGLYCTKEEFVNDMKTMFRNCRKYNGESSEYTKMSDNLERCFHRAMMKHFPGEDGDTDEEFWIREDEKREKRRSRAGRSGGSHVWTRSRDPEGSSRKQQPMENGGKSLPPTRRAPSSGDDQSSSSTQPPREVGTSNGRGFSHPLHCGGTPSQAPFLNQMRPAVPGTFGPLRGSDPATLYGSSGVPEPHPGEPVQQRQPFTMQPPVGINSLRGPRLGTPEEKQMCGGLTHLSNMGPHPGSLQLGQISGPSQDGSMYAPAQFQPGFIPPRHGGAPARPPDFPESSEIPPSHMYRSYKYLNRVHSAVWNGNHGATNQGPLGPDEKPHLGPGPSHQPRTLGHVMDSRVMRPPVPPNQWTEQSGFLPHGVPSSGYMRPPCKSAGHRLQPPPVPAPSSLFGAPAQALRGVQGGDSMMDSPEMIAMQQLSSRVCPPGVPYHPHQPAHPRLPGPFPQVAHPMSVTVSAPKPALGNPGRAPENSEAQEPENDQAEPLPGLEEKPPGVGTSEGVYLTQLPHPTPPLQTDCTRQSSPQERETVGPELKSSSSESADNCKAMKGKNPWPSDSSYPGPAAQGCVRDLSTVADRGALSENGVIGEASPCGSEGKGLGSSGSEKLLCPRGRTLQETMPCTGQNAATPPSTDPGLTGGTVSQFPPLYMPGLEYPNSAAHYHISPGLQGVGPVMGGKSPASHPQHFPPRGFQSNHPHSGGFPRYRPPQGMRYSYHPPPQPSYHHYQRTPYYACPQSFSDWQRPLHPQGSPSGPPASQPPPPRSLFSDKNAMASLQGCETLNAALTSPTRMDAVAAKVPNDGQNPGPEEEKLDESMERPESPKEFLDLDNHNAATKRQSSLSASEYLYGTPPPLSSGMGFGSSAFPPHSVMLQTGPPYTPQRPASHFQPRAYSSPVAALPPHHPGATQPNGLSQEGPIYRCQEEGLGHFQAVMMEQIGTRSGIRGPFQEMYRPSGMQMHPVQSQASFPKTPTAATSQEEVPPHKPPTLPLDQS
T3 sequence (P21675 whole entry): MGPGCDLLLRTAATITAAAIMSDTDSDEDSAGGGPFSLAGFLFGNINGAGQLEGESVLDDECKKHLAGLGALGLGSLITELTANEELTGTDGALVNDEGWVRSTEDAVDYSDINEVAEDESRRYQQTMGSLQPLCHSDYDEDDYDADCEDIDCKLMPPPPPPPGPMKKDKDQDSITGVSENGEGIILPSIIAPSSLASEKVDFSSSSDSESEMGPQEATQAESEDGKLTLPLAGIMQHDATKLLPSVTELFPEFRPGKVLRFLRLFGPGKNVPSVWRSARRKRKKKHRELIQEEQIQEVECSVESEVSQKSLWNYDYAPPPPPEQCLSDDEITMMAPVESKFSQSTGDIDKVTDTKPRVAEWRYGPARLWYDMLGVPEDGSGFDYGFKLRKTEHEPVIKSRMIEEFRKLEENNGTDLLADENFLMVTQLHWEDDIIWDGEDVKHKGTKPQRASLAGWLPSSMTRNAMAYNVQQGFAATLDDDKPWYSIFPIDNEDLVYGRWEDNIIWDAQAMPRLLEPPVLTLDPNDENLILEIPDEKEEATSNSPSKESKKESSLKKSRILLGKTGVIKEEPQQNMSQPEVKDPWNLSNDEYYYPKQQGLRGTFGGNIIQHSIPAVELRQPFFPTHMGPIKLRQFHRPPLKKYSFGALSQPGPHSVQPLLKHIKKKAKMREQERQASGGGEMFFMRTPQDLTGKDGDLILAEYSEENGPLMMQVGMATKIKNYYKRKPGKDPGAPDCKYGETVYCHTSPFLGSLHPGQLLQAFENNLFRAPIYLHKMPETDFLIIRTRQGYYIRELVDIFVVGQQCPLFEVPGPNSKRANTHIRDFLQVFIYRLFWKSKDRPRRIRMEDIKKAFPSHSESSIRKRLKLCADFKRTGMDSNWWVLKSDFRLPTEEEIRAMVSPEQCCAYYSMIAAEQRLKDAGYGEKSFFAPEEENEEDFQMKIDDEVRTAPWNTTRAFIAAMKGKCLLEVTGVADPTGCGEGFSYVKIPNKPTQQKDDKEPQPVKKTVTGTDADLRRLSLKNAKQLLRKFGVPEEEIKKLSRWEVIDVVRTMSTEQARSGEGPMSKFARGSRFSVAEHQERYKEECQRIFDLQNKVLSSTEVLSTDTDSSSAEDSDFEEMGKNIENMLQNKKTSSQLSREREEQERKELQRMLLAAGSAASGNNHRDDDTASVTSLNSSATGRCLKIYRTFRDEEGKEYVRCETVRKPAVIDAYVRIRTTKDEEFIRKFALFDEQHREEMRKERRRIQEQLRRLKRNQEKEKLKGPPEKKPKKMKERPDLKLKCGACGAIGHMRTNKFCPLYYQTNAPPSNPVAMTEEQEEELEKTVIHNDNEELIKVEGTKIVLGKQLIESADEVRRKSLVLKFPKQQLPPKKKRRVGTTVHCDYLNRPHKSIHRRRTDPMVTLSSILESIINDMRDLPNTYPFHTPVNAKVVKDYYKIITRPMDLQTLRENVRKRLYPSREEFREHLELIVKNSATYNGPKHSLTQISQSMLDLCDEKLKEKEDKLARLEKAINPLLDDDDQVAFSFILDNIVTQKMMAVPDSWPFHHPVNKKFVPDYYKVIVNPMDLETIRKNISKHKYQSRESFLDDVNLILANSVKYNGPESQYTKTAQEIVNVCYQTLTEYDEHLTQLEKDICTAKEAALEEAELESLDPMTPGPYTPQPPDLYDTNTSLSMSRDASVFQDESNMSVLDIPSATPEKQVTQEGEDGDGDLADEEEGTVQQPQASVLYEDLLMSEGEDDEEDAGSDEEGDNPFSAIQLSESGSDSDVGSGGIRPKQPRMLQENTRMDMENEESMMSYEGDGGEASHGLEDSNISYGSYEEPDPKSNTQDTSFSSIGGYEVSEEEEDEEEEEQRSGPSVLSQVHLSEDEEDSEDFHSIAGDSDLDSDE

For `C=CCn1cc(C(=O)N(C)C2CCN(C(C)c3ccccc3)CC2)c2cc[nH]c2c1=O` (racemic), the IC50 (commonly the concentration that inhibits the measured activity by half) in [1] is more than 20 µM; in [2], 0.5 µM; in [3], more than 20 µM; in data set [4], 16.1 µM; in data set [5], more than 20 µM.

For the compound `C=CCn1cc(C(=O)N(C)C2CCN([C@H](C)c3ccccc3)CC2)c2cc(C)[nH]c2c1=O`, the IC50 was more than 20 µM in [1]; 0.2 µM in [2]; more than 20 µM in data set [3]; 16.5 µM in data set [4]; 3.5 µM in [5].

On to `CN1CCC(NC(=O)c2cn(C)c(=O)c3[nH]ccc23)CC1`, for which the IC50 in [1] was more than 20 µM; in [2], 1.1 µM; in [3], more than 20 µM; in data set [4] it was 0.13 µM; in [5], 2.4 µM.

Turning to `C=CCn1cc(C(=O)N(C)C2CCN(c3cc(OC)ncn3)CC2)c2cc[nH]c2c1=O`, the IC50 in data set [2] is 0.13 µM; in data set [3], more than 20 µM; in data set [4] it was 2.8 µM; in [5], 8.5 µM.

As to `C=CCn1cc(C(=O)N(C)C2CCN(c3cc(-c4cccc(OC)c4)ncn3)CC2)c2cc[nH]c2c1=O`, the Kd (in general, a measure of binding affinity in units of concentration) in [6] worked out at 0.62 µM; in data set [7], 2.4 µM; in data set [9] it was 2 µM; in [11] it was 1.1 µM. In addition, the IC50 is 0.016 µM in data set [2], more than 20 µM in data set [3], 1.4 µM in data set [4] and 1.6 µM in data set [5]. In addition, the solubility kinetic in [8] came out at 122 µM (≈ 60.8 µg/mL). Moreover, in data set [10], the EC50 (in general, the concentration at which the effect is half-maximal) was determined as 0.37 µM.

Take `C=CCn1cc(C(=O)N(C)C2CCN(c3cc(-c4ccco4)ncn3)CC2)c2cc[nH]c2c1=O`: the concentration for half-maximal inhibition (IC50) in data set [2] was 0.045 µM; in data set [3], more than 20 µM; in [4] it was 2.5 µM; in data set [5] it was 3.3 µM.

For `C=CCn1cc(C(=O)N(C)C2CCN(c3cc(-c4ccccc4C)ncn3)CC2)c2cc[nH]c2c1=O`, the IC50 in [2] was 0.046 µM; in data set [3], more than 20 µM; in [4] it was 2.4 µM; in [5] it was 1.7 µM.

On to `CC(C)N1CCC(N(C)C(=O)c2cn(C)c(=O)c3[nH]ccc23)CC1`, for which the IC50 in data set [1] is 19.2 µM; in [2] it was 0.5 µM; in [3] it was more than 20 µM; in data set [4], 8.4 µM; in data set [5], 17.8 µM.

On to `C=CCn1cc(C(=O)N(C)C2CCN(c3cc(C(C)(C)C)ncn3)CC2)c2cc[nH]c2c1=O`, for which the IC50 is 0.055 µM in data set [2], more than 20 µM in [3], 2.8 µM in data set [4] and 5.7 µM in data set [5].

Take `C=CCn1cc(C(=O)N(C)C2CCN(c3cc(OC)nc(C)n3)CC2)c2cc[nH]c2c1=O`: the IC50 in [2] is 0.071 µM; in [3] it was more than 20 µM; in [4] it was 2.7 µM; in data set [5], 5.8 µM.

In the case of `C=CCn1cc(C(=O)N(C)C2CCN(c3cc(-c4ccccc4OC)ncn3)CC2)c2cc[nH]c2c1=O`, the IC50 was 0.045 µM in [2], more than 20 µM in [3], 2.6 µM in data set [4] and 2.6 µM in data set [5].

As to `C=CCn1cc(C(=O)N(C)C2CCN([C@@H](C)c3ccccc3)CC2)c2cc(C)[nH]c2c1=O`, the IC50 in data set [1] was more than 20 µM; in data set [2], 0.19 µM; in [3], more than 20 µM; in data set [4] it was 11.9 µM; in data set [5], 4.4 µM.

As to `C=CCn1cc(C(=O)N(C)C2CCN(c3cc(-c4ccccc4F)ncn3)CC2)c2cc[nH]c2c1=O`, the IC50 in data set [2] was 0.044 µM; in [3], more than 20 µM; in data set [4] it was 2.5 µM; in data set [5], 1.5 µM.

On to `C=CCn1cc(C(=O)N(C)C2CCN(c3ccncn3)CC2)c2cc[nH]c2c1=O`, for which the IC50 was 0.24 µM in data set [2], more than 20 µM in [3], 2.1 µM in [4] and 5 µM in [5].

Consider `C=CCn1cc(C(=O)N(C)C2CCN(c3cc(C4CC4)ncn3)CC2)c2cc[nH]c2c1=O`, for which the IC50 is 0.083 µM in [2], more than 20 µM in data set [3], 1.8 µM in data set [4] and 6.1 µM in [5].

In the case of `C=CCn1cc(C(=O)N(C)C2CCN(c3cc(C)nc(C)n3)CC2)c2cc[nH]c2c1=O`, the IC50 in data set [2] is 0.093 µM; in data set [3], more than 20 µM; in data set [4], 5.1 µM; in [5] it was 7.6 µM.

In the case of `C=CCn1cc(C(=O)N(C)C2CCN(c3cc(C(F)(F)F)ncn3)CC2)c2cc[nH]c2c1=O`, the half-inhibitory concentration (IC50) in data set [2] was 0.2 µM; in data set [3], more than 20 µM; in data set [4] it was 3.4 µM; in data set [5], 11.4 µM.

Turning to `C=CCn1cc(C(=O)N(C)C2CCN(c3cc(C4CC4)nc(C)n3)CC2)c2cc[nH]c2c1=O`, the IC50 was 0.052 µM in [2], more than 20 µM in [3], 3.3 µM in [4] and 3.5 µM in [5].

For `CN1CCC(N(C)C(=O)c2cn(C)c(=O)c3[nH]ccc23)CC1`, the IC50 was 17.2 µM in data set [1]; 0.78 µM in data set [2]; more than 20 µM in [3]; 6.1 µM in [4]; more than 20 µM in [5].

Regarding `C=CCn1cc(C(=O)N(C)C2CCN(c3cc(-n4cccn4)ncn3)CC2)c2cc[nH]c2c1=O`, the IC50 in data set [2] was 0.059 µM; in data set [3], more than 20 µM; in [4] it was 3.4 µM; in [5] it was 6.9 µM.

As to `CC(c1ccccc1)N1CCC(N(C)C(=O)c2cn(C)c(=O)c3[nH]ccc23)CC1` (racemic), the IC50 is 6.1 µM in data set [1]; 0.33 µM in data set [2]; more than 20 µM in data set [3]; 3.6 µM in [4]; 11 µM in data set [5].
